This passage reports pIC50 results from ChEMBL document CHEMBL3045733, “3D-QSAR and molecular docking studies of hydroxamic acids as peptide deformylase inhibitors” (Med Chem Res, 2012).

A short description of this experiment: Inhibition of peptide deformylase using N-formylmethionine-alanine-serineas substrate incubated for 10 min before substrate addition by PDF-FDH coupled assay.
Turning to `CCCC[C@@H](C(=O)N1CCC[C@H]1C(=O)Nc1ccc(Cl)c(Cl)c1)[C@H](F)C(=O)NO`, the pIC50 was determined as 9. `CCCC[C@@H](C(=O)N1CCC[C@H]1C(=O)N1CCN(c2ncccn2)CC1)[C@H](F)C(=O)NO` had a pIC50 of 8.22.

`O=C(CN(CCC1CCCC1)C(=O)N1CCC[C@H]1C(=O)Nc1nccc(-c2ccccc2)n1)NO` had a pIC50 of 7.17. `CCCC[C@@H](C(=O)N1CCC[C@H]1C(=O)N1CCN(c2ccccc2F)CC1)[C@H](F)C(=O)NO` yielded a pIC50 of 8.22. As for `CCCCCNC(=O)[C@@H]1CCCN1C(=O)[C@H](CCCC)[C@H](O)C(=O)NO`, the figure is 8.1; as for `CCCC[C@@H](C(=O)N1CCC[C@H]1C(=O)N1CCN(c2ncccn2)CC1)[C@H](O)C(=O)NO`, 8.52; as for `O=C(CN(CCC1CCCC1)C(=O)N1CCC[C@H]1C(=O)Nc1cccc(O)c1)NO`, 7.77. In the case of `CCCCCNC(=O)[C@@H]1CCCN1C(=O)[C@H](CCCC)[C@H](F)C(=O)NO` it was 7.89; in that of `CCCC[C@@H](C(=O)N1CCC[C@H]1C(=O)N1CCC1)[C@H](F)C(=O)NO`, 7.54.

`CCCC[C@H](CC(=O)NO)C(=O)N1CCC[C@H]1C(=O)Nc1nc2ccccc2s1` displayed a pIC50 of 8.52. In the case of `Cc1nc(NC(=O)[C@@H]2CCCN2C(=O)N(CCC(C)C)CC(=O)NO)sc1C`, the pIC50 amounted to 8.52.

With `CCCC[C@@H](C(=O)N1CCC[C@H]1C(=O)NCCC)[C@H](O)C(=O)NO`, the negative logarithm of the IC50 (pIC50) turned out to be 8.1. In the case of `O=C(CN(CCC1CCCC1)C(=O)N1CCC[C@H]1C(=O)Nc1cnccn1)NO` it was 7.27; in that of `CCCC[C@@H](C(=O)N1CCC[C@H]1C(=O)NC(C)C)[C@H](O)C(=O)NO`, 8.15; in that of `CNC(=O)[C@@H]1CCCN1C(=O)N(CCC(C)C)CC(=O)NO`, 7.21. In the case of `CCc1nnc(NC(=O)[C@@H]2CCCN2C(=O)N(CCC(C)C)CC(=O)NO)s1` it was 7.74; in that of `O=C(CN(CCC1CCCC1)C(=O)N1CCC[C@H]1C(=O)Nc1ncccn1)NO`, 7.68; in that of `CC(C)CCN(CC(=O)NO)C(=O)N1CCC[C@H]1C(=O)Nc1nnc(-c2ccccc2)s1`, 7.01. In the case of `CCCC[C@@H](C(=O)N1CCC[C@H]1C(=O)OC(C)(C)C)[C@@H](O)C(=O)NO` it was 8.22; in that of `Cc1nnc(NC(=O)[C@@H]2CCCN2C(=O)N(CCC(C)C)CC(=O)NO)s1`, 7.92; in that of `CCCC[C@@H](C(=O)N1CCC[C@H]1C(=O)NC(C)(C)CC)[C@H](O)C(=O)NO`, 8.1. In turn, `CCCC[C@H](CC(=O)NO)C(=O)N1CCC[C@H]1C(=O)Nc1nc(-c2ccccc2)cs1` displayed a pIC50 of 8.04. Consider `CCCC[C@@H](C(=O)N1CC[C@H]1C(=O)NCCC)[C@H](O)C(=O)NO`, for which the pIC50 was 8.17. As for `CCCC[C@@H](C(=O)N1CCC[C@H]1C(=O)OC(C)(C)C)[C@H](OS(=O)(=O)O)C(=O)NO`, the figure is 7.52; as for `CC(C)CCNC(=O)[C@@H]1CCCN1C(=O)N(CCC(C)C)CC(=O)NO`, 7.92; as for `CCCC[C@@H](C(=O)N1CCC[C@H]1C(=O)NCC(O)CC)[C@H](F)C(=O)NO` (some centres undefined), 8.15. As for `CCCC[C@@H](C(=O)N1CCC[C@H]1C(=O)Nc1nc(C)c(C)s1)[C@H](F)C(=O)NO`, the figure is 8.7; as for `Cc1nc(NC(=O)[C@@H]2CCCN2C(=O)N(CCC2CCCC2)CC(=O)NO)sc1C`, 8.7. As for `CCCCNC(=O)[C@@H]1CCCN1C(=O)[C@H](CCCC)[C@H](F)C(=O)NO`, the figure is 7.8; as for `CCCC[C@@H](C(=O)N1CCC[C@H]1C(=O)N1CCOCC1)[C@H](F)C(=O)NO`, 7.89. In turn, `CCCC[C@@H](C(=O)N1CCC[C@H]1C(=O)Nc1nc(C)c(C)s1)[C@@H](F)C(=O)NO` yielded a pIC50 of 8.7. In the case of `Cc1cnc(NC(=O)[C@@H]2CCCN2C(=O)N(CCC(C)C)CC(=O)NO)s1` it was 7.2; in that of `CCCC[C@@H](C(=O)N1CCC[C@H]1C(=O)OC(C)(C)C)[C@@H](OC)C(=O)NO`, 7.3; in that of `CCCC[C@@H](C(=O)N1CCC[C@H]1C(=O)NCCC)[C@H](F)C(=O)NO`, 7.89. On to `CCCC[C@@H](C(=O)N1CCC[C@H]1C(=O)N1CCC1)[C@H](O)C(=O)NO`, for which the pIC50 is on record as 7.77. The compound `CCCC[C@@H](C(=O)N1CCC[C@H]1C(=O)NC)[C@@H](F)C(=O)NO` had a pIC50 of 7.57. As for `CCCC[C@@H](C(=O)N1CCC[C@H]1C(=O)NC1CCCCC1)[C@H](O)C(=O)NO`, the figure is 8.52. The compound `CCCC[C@@H](C(=O)N1CCCC[C@H]1C(=O)NCCC)[C@H](O)C(=O)NO` had a pIC50 of 8.17. As for `CC(C)CCN(CC(=O)NO)C(=O)N1CCC[C@H]1C(=O)Nc1ccc2c(c1)OCO2`, the figure is 7.96; as for `CCCC[C@@H](C(=O)N1CCC[C@H]1C(=O)N1CCCCC1)[C@H](F)C(=O)NO`, 7.66; as for `CCCC[C@@H](C(=O)N1CCC[C@H]1C(=O)N1CCN(c2ccccc2F)CC1)[C@H](O)C(=O)NO`, 8.3. As for `CCCC[C@@H](C(=O)N1CCC[C@H]1C(=O)N1CCCC1)[C@H](O)C(=O)NO`, the figure is 7.62; as for `CCCC[C@@H](C(=O)N1CCC[C@H]1C(=O)N1CCCCC1)[C@H](O)C(=O)NO`, 7.89; as for `O=C(CN(CCC1CCCC1)C(=O)N1CCC[C@H]1C(=O)Nc1ccc2c(c1)OCO2)NO`, 8.1.

In turn, `CC(C)CCN(CC(=O)NO)C(=O)N1CCC[C@H]1C(=O)Nc1nccs1` showed a pIC50 of 6.49.

Regarding `CCCC[C@@H](C(=O)N1CCC[C@H]1C(=O)NC1CCCCC1)[C@H](F)C(=O)NO`, the negative-log IC50 (pIC50) stood at 8.04. Take `C=CCNC(=O)[C@@H]1CCCN1C(=O)[C@H](CCCC)[C@@H](F)C(=O)NO`: the pIC50 was 7.8. In turn, `CCCC[C@H](CC(=O)NO)C(=O)N1CCC[C@H]1C(=O)NC` displayed a pIC50 of 8. In the case of `CCCC[C@@H](C(=O)N1CCC[C@H]1C(=O)NC)[C@H](O)C(=O)NO` it was 8.

One may read the pIC50 as the negative decadic logarithm of the IC50, by convention in mol/L. Read a high pIC50 as a small IC50.
